The source of these data is paper PMC9112550, “Optimization of the antimicrobial peptide Bac7 by deep mutational scanning” (BMC Biology, 2022).

One assay relates to E. coli TOP10. Nature of the assay: Deep mutational scanning, site-saturation Bac7_1-23 library, intracellular self-screening with NGS. Type of assay: cell-based. Particulars: induction vs 4.5 h, n = 3, more negative = more antimicrobial. As for the experimental part:
A focused strategy was pursued to generate diversity at positions 5, 18, 19, and 20 in the Bac7_1-23 peptide. […] Degeneration was introduced by using the QuikChange technique, amplifying the pBAD plasmid containing the Bac7_1-23 gene using a mixture of 20 oligonucleotides (Additional file 1: Table S1) at a final concentration of 0.3 μM and Phusion® High-Fidelity PCR Master Mix in HF buffer. The amplification was performed using 20 cycles of 98°C for 10 s, 60°C for 15 s, and 72°C for 10 s. The PCR product was treated with the enzyme Dpn1 to remove the template plasmid and subsequently purified. The purified product was used to transform 20 μl of CloneCatcher™ Gold DH5G Electrocompetent E. coli (Genlantis, Burlington, USA) cells using electroporation.
To assess the antimicrobial activity of multiple peptides in parallel when expressed intracellularly in E. coli TOP10, previously prepared aliquots containing E. coli plasmid libraries created by either random mutagenesis or site-saturation mutagenesis were used. For both approaches, three aliquots containing approximately 500 million cells each of E. coli TOP10 harboring peptide-encoding DNA sequences on the pBAD plasmid were thawed and added to three 1-l baffled shake flasks containing 100 ml of LB medium + 100 μg ml^−1 carbenicillin. The cultures were grown for roughly 7 h at 37°C.

In another assay the test system is bacteria. Particulars: cited from earlier work. The source says:
One of the most intensively researched proline-rich AMPs is bactenecin-7 (Bac7). It is a 60 amino acid long linear peptide that was first isolated from bovine neutrophils. […] Measuring the antimicrobial activity of heavily mutated variants was valuable to determine the sequence-activity relationship of Bac7_1-23 because (i) the activity of specific amino acid res ... || Bac7PS excelled over Bac7_1-23 in terms of antimicrobial activity against clinical isolates including MDR bacteria and a decreased dependency on the SbmA transporter (Fig. 4a; Table 2). […] We mainly attribute the activity gain to the increased ability to penetrate membranes, which was accompanied by a slight increase in membrane damage at higher concentrations compared to Bac7_1-23 (Fig. 4b; Additional file 1 ...

For another assay, the system named is E. coli ATCC 25922. Nature of the assay: In vivo efficacy, murine septicemia model. Conditions: 30 mg kg^−1 IP once (1 h post-infection); 10 CD-1 mice; positive control. The method, then: CD-1 mice (7 weeks old, 27–28 g female) were used (Charles River, France). These animals were housed for a week of acclimation period before the experiment in a protected area in the ‘Centre de Zootechnie de l’Université de Bourgogne’ (Biosafety level 2 facility) and fed ad libitum according to the current recommendations by the European Institute of Health. Housing took place in rooms where a 12-h/12 h light/dark cycle is applied, the temperature ranges from 18 to 21°C and the relative humidity from 45 to 65%. The animal facility is authorized by the French authorities (Agreement N° C 21 464 04 EA). […]
For animal experiments, Bac7PS was synthesized at Genscript as acetate salt and with a purity of 92%. […] First, the maximum tolerated dose (MTD) for the peptide was determined by testing different peptide doses in 8 groups with 5 animals per group. The peptide solution was administered once by intraperitoneal (IP) injection with a volume of between 94 and 240 μl (depending on the weight of the animal and the dosage) and the animals were monitored for 2 h following the injection, then 6 to 8 h later, and then once or twice a day, depending on the clinical status, up to 5 days post-injection. […] As endpoint, the wellbeing and survival rate, on a twice daily based evaluation for up to 3 days, was monitored.

Turning to “RRIRDRPPRLPRPRPRPIKDPRP [site-saturation library peptide ID 5521]”, the “lfcShrink4 (shrunken log2-fold change of abundance of peptide-encoding DNA)” value in the assay with E. coli TOP10 is reported as -4.
In the case of “Bac7_1-15: Bac7_1-15 (RRIRPRPPRLPRPRP; Bactenecin-7; UniProt P19661 131-145, looked up, fragment)”, the “antimicrobial activity” value in the assay with bacteria is listed as “loss of antimicrobial activity”.
For `O=C(O)c1cn(C2CC2)c2cc(N3CCNCC3)c(F)cc2c1=O` [ciprofloxacin], the survival result in the assay with E. coli ATCC 25922 is reported as “survival of all mice”.
